Assay results reported in patent US20230119068A1, “METHODS FOR RAPID SYNTHESIS OF PYRANOANTHOCYANINS” (Ohio State Innovation Foundation, priority 2020, published 2023).

Columns and labels:
[1] = Color expression of cis and trans isomers of acylated delphinidin at different pH; type: physicochemical; details: for color expression: pH 4
Method: Delphinidin-3-(p-coumaroyl)-rutinoside-5-glucoside was extracted from Chinese eggplants, semi-purified and taken to 400 mg/L in methanol. Extract aliquots were placed in sealed quartz cuvettes, with the clear side facing up, and irradiated with different light sources (sunlight, D65 lamp, and UV chamber at 365 nm) for up to 112 hrs. Pigment isomerization was monitored over time on a uHPLC-PDA-MS/MS, using a pentafluorophenyl column and positive electrospray ionization on a triple quadrupole. Cis and trans-delphinidin-derivatives were isolated to compare their color stability and strength. Color was measured on a ColorQuest XE spectrophotometer, using 10° observer angle, illuminant D65, and total transmittance. Data was collected in triplicates and analyzed by two-way ANOVA.

[2] = test system: E. coli, S. aureus and B. cereus, and LAB; details: compared with CA and FA; cited from earlier work

Compound: Delphinidin-3-(p-coumaroyl)-rutinoside-5-glucoside [cis-delphinidin]
- color expression [1]: noticeable color
- color intensity ([1]; pH 5): greater color intensity than the trans-isomer

Compound: Delphinidin-3-(p-coumaroyl)-rutinoside-5-glucoside [trans-delphinidin]
- color expression [1]: bleached completely

Compound: O=C(O)/C=C/c1ccc(O)cc1 [pCA, p-coumaric acid]
- antibacterial activity [2]: stronger antibacterial activity
